Assay results as given in patent publication US5230998A, “Method for the prescreening of drugs targeted to the V3 hypervariable loop of the HIV-1 envelope glycoprotein gp 120” (priority 1991, dated 1993).
Values after ≈ are worked out from the molar mass of the structure shown.

Experiments:
[1] = target: T1, HIV-1 IIIB glycoprotein gp120 V3 hypervariable loop (Human immunodeficiency virus type 1 BH10, UniProt P03375); assay: Inhibition of the reaction between HIV-1 IIIB gp120 and three distinct antibodies reacting with the V3 hypervariable loop (FIGS. 8-11); type: binding; details: 60 μg/ml, metal complexes versus uncomplexed
T1 construct: b180 also mentions the V3 loop peptide
Procedure: (§1) FIG. 8 is a bar graph depicting the inhibitory effect of chlorine6 (60 μg/ml) and metal chelates thereof on the reaction between HIV-1 IIIB glycoprotein gp120 and three distinct antibodies reacting with the V3 hypervariable loop of this glycoprotein. The antisera used were rabbit antiserum to a synthetic peptide corresponding to the V3 hypervariable loop of HIV-1 clone BH10, serum of a chimpanzee immunized with V3 hypervariable loop peptides of distinct HIV-1 isolates and monoclonal antibodies (McAb NEA 9305) raised against residues (315-329) of the V3 hypervariable loop of HIV-1 BH10 (Neurath et al (1990), Molec. Immunol., 27, 539-549).
FIG. 9 is a bar graph depicting the inhibitory effect of deuteroporphyrin IX,2-vinyl,4-hydroxymethyl (60 μg/ml) and metal chelates thereof on the reaction between HIV-1 IIIB glycoprotein gp120 and three distinct antibodies reacting with the V3 hypervarible loop of this glycoprotein. The antisera used were rabbit antiserum to a synthetic peptide corresponding to the V3 hypervariable loop of HIV-1 clone BH10, serum of a chimpanzee immunized with V3 hypervariable loop peptides of distinct HIV-1 isolates and monoclonal antibodies (McAb NEA 9305) raised against a synthetic peptide corresponding to residues (315-329) of the V3 hypervariable loop of HIV-1 BH10 (Neurath et al (1990), Molec. Immunol 27, 539-549).
as §1, with “FIG. 10” for “FIG. 8”, “of meso-tetra (4-carboxyphenyl)porphine” for “of chlorine6”, “against a synthetic peptide corresponding to” for “against”, “HIV-1 BH10.” for “HIV-1 BH10”
as §1, with “FIG. 11” for “FIG. 8”, “of uroporphyrin III” for “of chlorine6”, “against a synthetic peptide corresponding to” for “against”, “et al,” for “et al”, “Molec. lmmunol.,” for “Molec. Immunol.,”, “27, 539-549)” for “27, 539-549).”
Monoclonal antibodies (McAbs) recognizing the V3 hypervariable loop of HIV-1 BH 10 (McAb 9305 from DuPont, Wilmington, Del.) and an antiserum from a chimpanzee immunized with a mixture of V3 hypervariable loop peptides from 21 distinct HIV1 isolates (Girard, M., Kieny, M-P., Pinter, A., Barre-Sinoussi, F., Nara, P., Kolbe, H., Kusumi, K., Chaput, A., Reinhart, T., Muchmore, E, Ronco, J., Kaczorek, M., Gomard, E, Gluckman, JC., Fultz, P. N. (1991), "Immunization of Chimpanzees Confers Protection Against Challenge with Human Immunodeficiency Virus", Proc. Natl. Acad. Sci. USA, 88, 542-546) were also used for studies on the inhibitory affect of ATA on the reaction between these antibodies and gp120, using ELISA tests. These tests were carried out similarly as RIA, except that sodium merthiolate (1 mg/ml) was added to the buffers instead of NaN3, and goat antimouse IgG antibodies (Boehringer Mannheim Biochemicals, Indianapolis, Ind.) and goat anti-human IgG antibodies (Sigma, St. Louis, Mo.), respectively, each linked to horseradish peroxidase were used as second antibodies at final dilutions of 1:1,000 in phosphate-buffered saline (PBS) containing 10% goat serum and 0.1% Tween 20. […]

[2] = test system: gp120 expressed on the surface of HIV-1-infected cells; details: literature; cited from earlier work
[3] = test system: HIV-1; assay: Antiviral activity: inhibition of P24 production in MT-2 cells; type: cell-based, HIV-1 IIIB; set-up: inhibition: dose or concentration left out as unconfirmed; details: Human immunodeficiency virus 1, MT2, Table 1
Procedure: All chemicals were tested at serial two-fold dilutions (1.25-80 μg/ml, prepared from a stock solution containing 10 mg/ml in dimethylsulfoxide). The chemicals were obtained from Aldrich, Milwaukee, Wis. or were synthesized. Their inhibitory activity was determined by two distinct methods, based on inhibition of synthesis of core protein P24 and on protection by the chemicals of cells against the cytopathic effect of HIV-1 (colorimetric method) respectively.
The chemicals were serially diluted in RPMI 1640 medium without phenol red (GIBCO, Grand Island, N.Y.) containing 10% fetal calf serum (FCS). Aliquots of the diluted solutions were added to wells of 96 well plates and mixed with an equal volume of diluted HIV-1 [multiplicity of infection (MOI) =0.0045]. After incubation for 1 hour at 37° C., 25 μl of polybrene (1 μg/ml) treated MT-2 cells (Harada, S., Koyanagi, Y., Yamamoto, N., (1985), "Infection of HTLV-III/LAV in HTLV-I-carrying Cells MT-2 and MT-4 and Application in a Plaque Assay", Science, 229, 563-566), (5,000 cells/well) were added. The mixture was incubated for 1 hour at 37° C. and the volume was adjusted with RPMI 1640 medium with 10% FCS to 200 μl. On the fourth day after incubation at 37° C., 100 μl of culture supernatants were collected from each well and equal volumes of fresh medium were added to the wells. The supernatants were assayed for P24 using a kit from Coulter Immunology (Hialeah, Fla.). On the sixth day, an indicator XTT tetrazolium dye (1 mg/ml; 50 μl/well; PolySciences, Inc., Warrington, Penna.) was added to the cells. After 4 hours, intracellular formazan was determined colorimetrically at 450 nm.
^c Chemicals with inhibitory activity in ELISA (RIA) tests were teste
^d EC50 = concentration at which the production of P24 was […]

[4] = target: T2, HIV-1 gp120 V3 hypervariable loop (Human immunodeficiency virus type 1 group M subtype B, UniProt P03375); assay: biochemical; type: binding; as to inhibitory activity: key: Chemicals with inhibitory activity are indicated by +
T2 construct: Polystyrene plates coated with recombinant gp120 and gp160, respectively; purchased American Bio-Technologies, Inc., Cambridge, Mass; host or cells: baculovirus expression system
Procedure: Wells of 96 well polystyrene plates (Immulon 2, Dynatech Laboratories, Inc., Chantilly, Va.) were coated with synthetic peptides (200 μl; 20μg/ml in 0.1 M Tris-HCl, pH 8.8) overnight at 20° C. The peptides were from the sequence of HIV-1, clone BH 10 envelope glycoproteins gp120 and gp41 (Neurath, A. R., Strick, N., and Lee, E. Y. S. (1990), "B-cell Epitope Mapping of Human Immunodeficiency virus (HIV-1) Envelope Glycoprotein with Long (19 to 36-residue) Synthetic Peptides", J. Gen. Virol., 71., 85-95) and from V3 hypervariable loops of 21 distinct HIV-1 isolates (clones) Neurath, A. R., and Strick, N., (1990), "Confronting the Hypervariability of an Immunodominant Epitope Eliciting Virus Neutralizing Antibodies from the Envelope Glycoprotein of the Human Immunodeficiency Virus Type 1 (HIV-1)", Molec. Immunol., 27, 539-549. The latter peptides corresponded to full-length V3 loops generated by disulfide bonds between N- and C- terminal cysteine residues. After washing with 0.14 M NaCl, 0.01 M Tris, 0.02% NaN3 (TS), the wells were postcoated with a mixture of bovine serum albumin (BSA) and gelatine (10 and 2.5 mg/ml, respectively) in TS. BSA was omitted from the postcoating solution for RIA tests in which antibodies to ATA were used. Polystyrene plates coated with recombinant gp120 and gp160, respectively, (500 ng/well; from American Bio-Technologies, Inc., Cambridge, Mass. and MicroGeneSys, Inc., West Haven, Conn., respectively) were also used for RIA and ELISA tests.
To define sites on gp120/gp41 reacting with ATA, the inhibitory effect of this compound was studied by RIA tests using gp120- and gp160-coated wells, respectively, and antisera (final dilutions 1:150) against synthetic peptides from the entire sequence of gp120/gp41 of HIV-1 BH 10. The preparation and biological properties of these antisera were described elsewhere (Neurath et al., (1990), J. Gen. Virol., 71, 85-95). Each of the antisera was diluted in a mixture of fetal bovine serum and goat serum (9:1) containing 0.1% Tween 20, adjusted to pH 8. ATA (final concentration 50 μg/ml) was added in one set of assays, but was omitted from a parallel set. After incubation overnight at 25° C., the plates were washed with TS. Attached rabbit IgG was detected using ^125 I-labeled anti-rabbit IgG, as described before (Neurath et al., 1990, J. Gen. Virol., 71, 85-95). Similarly, the inhibitory effect of ATA on the reaction of peptides derived from gp120/gp41 and of peptides derived from V3 hypervariable loops from gp120 of distinct HIV-1 isolates with the respective homologous anti-peptide antisera was studied. In the latter case, antisera were diluted 1:1,000 for the assays.
The inhibitory effect of ATA and of other compounds on the reaction between antibodies with predetermined specificity and gp120 (or synthetic peptides derived from it) was determined from the formula: [formula] An analogous formula was used to calculate the percentage of inhibition from optical density readings resulting from ELISA tests.
Chemicals other than ATA were screened for inhibitory activity essentially as described above. […] Chemicals with inhibitory activity established by the respective immunoassays were screened further for antiviral activity.
Commercially available ATA is a mixture of monomers and polymers of distinct molecular masses (Gonzalez et al., (1979) Biochem. Biophys. Acta, 562, 534-545); Cushman et al., (1991), J. Chem., 34, 329-337). The monomers [molecular mass (M.W.)=422.4 daltons] were separated from the polymers. ATA (20 mg/ml in the form of free acid neutralized with 0.4 M NaOH) was dialyzed against H2 O in a dialysis membrane with a molecular mass cutoff of 500 daltons.

Row | Molecule | inhibitory activity on the interaction between the V3 hypervariable loop of HIV-1-IIIB and antisera [1] | other results
1 | O=C(O)c1ccc(-c2c3nc(c(-c4ccc(C(=O)O)cc4)c4ccc([n-]4)c(-c4ccc(C(=O)O)cc4)c4nc(c(-c5ccc(C(=O)O)cc5)c5ccc2[n-]5)C=C4)C=C3)cc1.[Cu+2] | drastically reduced inhibitory activity | 
2 | C=Cc1c(C)c2cc3nc(cc4[n-]c(cc5nc(cc1[n-]2)C(C)=C5CO)c(C)c4CCC(=O)O)C(CCC(=O)O)=C3C.[Fe+2] | substantially lower than that of the uncomplexed substance or of its Zn derivative | 
3 | heparin |  | inhibition of the reaction of gp120 on infected cells with monoclonal anti-gp120 antibodies [2]: inhibit the reaction of gp120 expressed on the surface of HIV-1-infected cells with monoclonal anti-gp120 antibodies
4 | O=C(O)c1ccc(-c2c3nc(c(-c4ccc(C(=O)O)cc4)c4ccc([n-]4)c(-c4ccc(C(=O)O)cc4)c4nc(c(-c5ccc(C(=O)O)cc5)c5ccc2[n-]5)C=C4)C=C3)cc1.[Mn+2] | drastically reduced inhibitory activity | 
5 | pentosan polysulfate |  | inhibition of the reaction of gp120 on infected cells with monoclonal anti-gp120 antibodies [2]: inhibit the reaction of gp120 expressed on the surface of HIV-1-infected cells with monoclonal anti-gp120 antibodies
6 | O=C(O)c1ccc(-c2c3nc(c(-c4ccc(C(=O)O)cc4)c4ccc([n-]4)c(-c4ccc(C(=O)O)cc4)c4nc(c(-c5ccc(C(=O)O)cc5)c5ccc2[n-]5)C=C4)C=C3)cc1.[Fe+2] | drastically reduced inhibitory activity | 
7 | O=C(O)c1ccc(-c2c3nc(c(-c4ccc(C(=O)O)cc4)c4ccc([n-]4)c(-c4ccc(C(=O)O)cc4)c4nc(c(-c5ccc(C(=O)O)cc5)c5ccc2[n-]5)C=C4)C=C3)cc1.[Cr+2] | drastically reduced inhibitory activity | 
8 | O=C(O)c1ccc(-c2c3nc(c(-c4ccc(C(=O)O)cc4)c4ccc([n-]4)c(-c4ccc(C(=O)O)cc4)c4nc(c(-c5ccc(C(=O)O)cc5)c5ccc2[n-]5)C=C4)C=C3)cc1.[Co+2] | drastically reduced inhibitory activity | 
9 | O=C(O)c1ccc(-c2c3nc(c(-c4ccc(C(=O)O)cc4)c4ccc([n-]4)c(-c4ccc(C(=O)O)cc4)c4nc(c(-c5ccc(C(=O)O)cc5)c5ccc2[n-]5)C=C4)C=C3)cc1.[Ni+2] | drastically reduced inhibitory activity | 
10 | O=C(O)CCC1=C(CC(=O)O)c2cc3[nH]c(cc4nc(cc5[nH]c(cc1n2)c(CC(=O)O)c5CCC(=O)O)C(CC(=O)O)=C4CCC(=O)O)c(CC(=O)O)c3CCC(=O)O [compound 163] |  | EC50 ([3]; read-out: EC50 (concentration at which the production of P24 was reduced to 50% of that detected in control cultures)): 9.8 µg/mL (≈ 11.8 µM); inhibition ([3]; read-out: percentage of inhibition of P24 nucleoprotein production): 99%; Inhibitory activity ([4]; Table 1, reaction between HIV-1 gp120 and anti-V3 loop antibodies): +; inhibition at 50 µg/mL ([4]; read-out: percentage of inhibition): 41.1%
